The source of these data is article PMC10742973 (International Journal of Molecular Sciences, 2023).

The structures appear in SMILES notation.

For the assay, the target named is T1, MtMetAP1c (Mycobacterium tuberculosis, UniProt P9WK19).
T1 construct: gene map
Briefly: biochemical. The settings on record: read-out: IC50 (μM) / MtMetAP1c + 100 μM CoCl2.

T1 sequence (P9WK19 whole entry): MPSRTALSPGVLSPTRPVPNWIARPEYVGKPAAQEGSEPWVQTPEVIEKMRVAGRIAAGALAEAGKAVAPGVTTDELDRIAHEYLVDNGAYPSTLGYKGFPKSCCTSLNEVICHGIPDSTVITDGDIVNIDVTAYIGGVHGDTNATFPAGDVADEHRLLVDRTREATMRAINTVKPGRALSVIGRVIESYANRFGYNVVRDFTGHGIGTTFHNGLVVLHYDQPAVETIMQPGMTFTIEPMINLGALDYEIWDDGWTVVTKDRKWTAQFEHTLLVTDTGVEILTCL

Take `Cc1nc(-c2ccccn2)nc(N(C)Cc2ccccc2)c1Cl` [OJT008, N-benzyl-5-chloro-N,6-dimethyl-2-pyridin-2-ylpyrimidin-4-amine]: the IC50 was 11.8 ± 1.3 µM.
